Measured values from patent US6878742B2, “Heterocyclic sulfonamide inhibitors of beta amyloid production” (Wyeth, priority 2000, dated 2005).
Several values for one entry are separate records, joined by “and”; a condition that tells them apart may be missing. Equal entries are not always repeated. Where two headings read alike, the source gives them in different places.

Tested on: amyloid precursor protein (APP) proteolysis
Test: Repressor Release Assay (RRA)
Assay type: cell-based
Method in brief: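 This repressor release assay monitors APP proteolysis in mammalian cells. Transfected CHO-K1 cells (pRSVO-luc plus APP-lacI) were seeded at […], treated with compound diluted in 25 mM Hepes, then incubated 36-48 hours. After replacing media with PBS and adding LucLite lysis/substrate buffer, luminescence was measured, and fold increase over diluent control was calculated.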

[1] = Conc 20 μg/mL, luciferase activity over diluent control, read-out: APPI Fold Increase
[2] = Conc 10 μg/mL, luciferase activity over diluent control, read-out: APPI Fold Increase
[3] = Conc 20 μg/mL, luciferase activity over diluent control
[4] = Conc 10 μg/mL, luciferase activity over diluent control

| Molecule | fold induction at 20 µg/mL [1] | other results |
| --- | --- | --- |
| CC(C)C[C@@H](c1ccco1)[C@@H](CO)NS(=O)(=O)c1ccc(Cl)s1 [Example 50, 5-chloro-N-[(1S,2R)-2-(2-furyl)-1-(hydroxymethyl)-4-methylpentyl]thiophene-2-sulfonamide] | 7.7 |  |
| CCC[C@H](c1ccc(OC)cc1)[C@@H](CO)NS(=O)(=O)c1ccc(Cl)s1 [Example 36, 5-chloro-N-[(1S,2R)-1-(hydroxymethyl)-2-(4-methoxyphenyl)pentyl]thiophene-2-sulfonamide] | 3.8 |  |
| CC[C@H](C)[C@H](NS(=O)(=O)c1ccc(Cl)s1)C(C)O (stereo partly drawn) [Example 119, 5-Chloro-N-[(S,S)-1-(1-hydroxyethyl)-2-methylbutyl]thiophene-2-sulfonamide] |  | fold induction at 0.3 µg/mL (Conc 0.3 μg/mL, luciferase activity over diluent control, read-out: APPI Fold Increase): 1.54; fold induction at 3 µg/mL (Conc 3 μg/mL, luciferase activity over diluent control, read-out: APPI Fold Increase): 2.49; fold induction at 10 µg/mL [2]: 4.1 |
| CC[C@H](CC(C)C)[C@@H](CO)NS(=O)(=O)c1ccc(Br)s1 [Example 59, 5-bromo-N-[(1S,2R)-2-ethyl-1-(hydroxymethyl)-4-methylpentyl]thiophene-2-sulfonamide] | 4.5 |  |
| CCNC(C)(CO)CNS(=O)(=O)c1ccc(Cl)s1 (stereo not shown) [Example 80] |  | APPI Fold Increase [3]: 1.8 fold |
| CCC(CC)[C@@H](CO)NS(=O)(=O)c1ccc(Br)s1 [Example 58, 5-bromo-N-[(1S)-2-ethyl-1-(hydroxymethyl)butyl]thiophene-2-sulfonamide] | 10 |  |
| CC[C@H](C)[C@H](NS(=O)(=O)c1cccs1)C(O)CCC1OCCCO1 (stereo partly drawn) [Example 150, N-{(S)-4-(1,3-dioxan-2-yl)-2-hydroxy-1-[(S)-1-methylpropyl]butyl}thiophene-2-sulfonamide] |  | fold induction at 10 µg/mL [2]: 1.6 |
| CC1=CC(C)C(C(CO)NS(=O)(=O)c2ccc(Cl)s2)C(C)C1 (stereo not shown) [Example 22, 5-chloro-N-[2-hydroxy-1-(2,4,6-trimethylcyclohex-3-en-1-yl)ethyl]thiophene-2-sulfonamide] |  | fold induction at 20 µg/mL (read-out: APPI Fold Increase): 7 |
| CC[C@H](C)[C@H](NS(=O)(=O)c1ccc(Cl)s1)[C@@H](O)C1C=CCCC1 (stereo partly drawn) [Example 155, 5-Chloro-N-{(S,S)-1-[(S)-cyclohex-2-en-1-yl(hydroxy)methyl]-2-methylbutyl}thiophene-2-sulfonamide] | 4.2 |  |
| CC[C@H](C)[C@H](NS(=O)(=O)c1ccc(Cl)s1)C(O)C/C=C/c1ccccc1 (stereo partly drawn) [Example 161, 5-chloro-N-{(S,E)-2-hydroxy-1-[(S)-1-methylpropyl]-5-phenylpent-4-enyl}thiophene-2-sulfonamide] | 2.6 |  |
| CCCCCCC(O)C(NS(=O)(=O)c1ccc(Cl)s1)C(C)CC (mixture of isomers) [Example 121] |  | APPI Fold Increase [4]: 1.74 fold and 1.5 fold and 1.56 fold |
| CC(C)C[C@@H](c1cccnc1)[C@@H](CO)NS(=O)(=O)c1ccc(Br)s1 [Example 69, 5-bromo-N-[(1S,2S)-1-(hydroxymethyl)-4-methyl-2-pyridin-3-ylpentyl]thiophene-2-sulfonamide] | 1.5 |  |
| O=S(=O)(N[C@H](CO)C1CCC(NCc2ccccc2)CC1)c1ccc(Cl)s1 (stereo partly drawn) [Example 211, 5-Chloro-N-[(S)-2-hydroxy-1-(4-benzylaminocyclohexyl)ethyl]thiophene-2-sulfonamide] | 1.9 |  |
| CCCCCC[C@@H](C(C)C)[C@@H](CO)NS(=O)(=O)c1ccc(Cl)s1 [Example 52, 5-chloro-N-[(1S,2S)-1-(hydroxymethyl)-2-isopropyloctyl]thiophene-2-sulfonamide] | 7 |  |
| CCCCC(O)C(NS(=O)(=O)c1ccc(Cl)s1)C(C)CC (mixture of isomers) [Example 123] |  | APPI Fold Increase [4]: 2.14 fold and 1.76 fold |
| Cc1cccc(CSC[C@@H](CO)NS(=O)(=O)c2ccc(Br)s2)c1 [Example 115, 5-bromo-N-(R-2-hydroxy-1-{[(3-methylbenzyl)thio]methyl}ethyl)thiophene-2-sulfonamide] | 4.4 |  |
| CC[C@@H](C(C)C)[C@@H](CO)NS(=O)(=O)c1ccc(Br)s1 [Example 74, 5-bromo-N-[(1S,2S)-2-ethyl-1-(hydroxymethyl)-3-methylbutyl]thiophene-2-sulfonamide] | 5.1 |  |
| O=S(=O)(NC1(CO)CCCC1)c1ccc(Cl)s1 [Example 94] |  | APPI Fold Increase [4]: 2.4 fold |
| CC(NC1CCCC1)[C@@H](CO)NS(=O)(=O)c1ccc(Cl)s1 (stereo partly drawn) [Example 86, 5-chloro-N-[(1S)-2-(cyclopentylamino)-1-(hydroxymethyl)propyl]-2-thiophenesulfonamide] | 20 |  |
| O=S(=O)(N[C@H](CO)C1CCC(NCc2cccnc2)CC1)c1ccc(Cl)s1 (stereo partly drawn) [Example 216, 5-chloro-N-[(S)-2-hydroxy-1-(4-(3-pyridyl)methylaminocyclohexyl)ethyl]thiophene-2-sulfonamide] | 1.5 |  |
| CC[C@H](C)[C@@H](C=O)NS(=O)(=O)c1ccc(Cl)s1 [Example 118, 5-Chloro-N-[(S,S)-1-formyl-2-methylbutyl]thiophene-2 sulfonamide] | 4.8 |  |

| Molecule | fold induction at 20 µg/mL [1] | other results |
| --- | --- | --- |
| CCC(CC)[C@H](NS(=O)(=O)c1ccc(Cl)s1)C(C)(C)O [Example 223, 5-Chloro-N-[(S)-2-ethyl-1-(1-hydroxy-1-methylethyl)butyl]thiophene-2-sulfonamide] | 5.6 |  |
| CC[C@H](C)[C@H](NS(=O)(=O)c1ccc(Cl)s1)C(O)c1ccc(Cl)cc1 (stereo partly drawn) [Example 131, 5-chloro-N-{(S,S)-1-[(4-chlorophenyl)(hydroxy)methyl]-2-methylbutyl}thiophene-2-sulfonamide] |  | fold induction at 10 µg/mL [2]: 3.64 |
| 5-chloro-N-{(S,S)-2-hydroxy-1-[(S)-1-methylpropyl]pent-4-enyl}thiophene-2-sulfonamide [Example 188] |  | APPI Fold Increase [3]: 6.3 fold and 3.6 fold |
| CC[C@H](C)[C@@H](CO)NS(=O)(=O)c1ccc(Cl)s1 [Example 4] |  | APPI Fold Increase (Conc 1 μg/mL, luciferase activity over diluent control): 2.22 fold; APPI Fold Increase (Conc 3 μg/mL, luciferase activity over diluent control): 2.98 fold and 3.52 fold; APPI Fold Increase [4]: 3.3 fold and 5.03 fold; APPI Fold Increase [3]: 4 fold and 5.4 fold and 3.3 fold and 5.1 fold |
| O=S(=O)(N[C@H](CO)C1CCC(OCc2ccccc2)CC1)c1ccc(Cl)s1 (stereo partly drawn) [Example 202, N-{(S)-1-[4-(benzyloxy)cyclohexyl]-2-hydroxyethyl}-5-chlorothiophene-2-sulfonamide] | 2 |  |
| CCCCCC[C@@H](C)[C@@H](CO)NS(=O)(=O)c1ccc(Cl)s1 [Example 29, 5-chloro-N-[(1S,2R)-1-(hydroxymethyl)-2-methyloctyl]thiophene-2-sulfonamide] | 2.6 |  |
| O=S(=O)(NC1(CO)CC2CCC1C2)c1ccc(Br)s1 (stereo not shown) [Example 182, 5-bromo-N-[2-(hydroxymethyl)bicyclo[2.2.1]hept-2-yl]thiophene-2-sulfonamide] | 4.2 |  |
| 5-bromo-N-{(S,S)-1-[R-1-hydroxyethyl]-2-methylbutyl}thiophene-2-sulfonamide [Example 191] |  | APPI Fold Increase [3]: 5.4 fold and 4.8 fold |
| C[C@@H](c1ccco1)[C@@H](CO)NS(=O)(=O)c1ccc(Br)s1 [Example 70, 5-bromo-N-[(1S,2R)-2-(2-furyl)-1-(hydroxymethyl)propyl]thiophene-2-sulfonamide] | 4.6 |  |
| CC[C@H](C)[C@H](NS(=O)(=O)c1ccc(Br)s1)C(O)(CC)CC [Example 173, 5-bromo-N-{(S)-2-ethyl-2-hydroxy-1-[(S)-1-methylpropyl]butyl}thiophene-2-sulfonamide] |  | fold induction at 10 µg/mL [2]: 1.5 |
| O=S(=O)(N[C@H](CO)CC1CCCCC1)c1ccc(Cl)s1 [Example 95] |  | APPI Fold Increase [4]: 1.9 fold |
| CCCCCC[C@H](CC)[C@@H](CO)NS(=O)(=O)c1ccc(Br)s1 [Example 78B, 5-bromo-N-[(1S,2S)-2-ethyl-1-(hydroxymethyl)octyl]thiophene-2-sulfonamide] | 23 |  |
| CCC[C@H](CC)[C@@H](CO)NS(=O)(=O)c1ccc(Br)s1 [Example 60, 5-bromo-N-[(1S,2S)-2-ethyl-1-(hydroxymethyl)pentyl]thiophene-2-sulfonamide] | 6.9 |  |
| CCCCCCC(O)[C@@H](NS(=O)(=O)c1cccs1)[C@@H](C)CC (stereo partly drawn) [Example 141, N-{(S)-2-hydroxy-1-[(S)-1-methylpropyl]octyl}thiophene-2-sulfonamide] |  | fold induction at 10 µg/mL [2]: 4.2 |
| C=CC(O)[C@@H](NS(=O)(=O)c1cccs1)[C@@H](C)CC (stereo partly drawn) [Example 146, N-{(S)-2-hydroxy-1-[(S)-1-methylpropyl]but-3-enyl}thiophene-2-sulfonamide] |  | fold induction at 10 µg/mL [2]: 1.83 |
| C[C@@H](c1ccco1)[C@@H](CO)NS(=O)(=O)c1ccc(Cl)s1 [Example 48, 5-chloro-N-[(1S,2R)-2-(2-furyl)-1-(hydroxymethyl)propyl]thiophene-2-sulfonamide] | 4.7 |  |
| CCCC(CCC)[C@@H](CO)NS(=O)(=O)c1ccc(Cl)s1 [Example 40, 5-chloro-N-[(1S)-2-propyl-1-(hydroxymethyl)pentyl]thiophene-2-sulfonamide] | 3.9 |  |
| O=S(=O)(N[C@H](CO)C1CCC(O)CC1)c1ccc(Cl)s1 (stereo partly drawn) [Example 199A, 5-Chloro-N-[(S)-2-hydroxy-1-(4-hydroxycyclohexyl)ethyl]thiophene-2-sulfonamide] | 2.4 |  |
| CCCCC(CO)NS(=O)(=O)c1ccc(Cl)s1 (racemic) [Example 91, 5-chloro-N-[1-(hydroxymethyl)pentyl]thiophene-2-sulfonamide] | 2 |  |
| CC[C@H](C)[C@H](NS(=O)(=O)c1ccc(Cl)s1)C(O)(c1cccc2ccccc12)c1cccc2ccccc12 [Example 172, 5-chloro-N-((S,S)-1-{hydroxy[di(1-naphthyl)]methyl}-2-methylbutyl)thiophene-2-sulfonamide] |  | fold induction at 10 µg/mL [2]: 2 |
